# Patent publication US20240401027A1, “METHOD FOR IMPROVED INTRON TAGGING AND AUTOMATED CLONE RECOGNITION” (PROXYGEN GMBH, priority 2021, published 2024)
# Test system: pool of HAP1 cells expressing GFP-tagged proteins
# Assay: Live cell imaging of GFP-tagged HAP1 cell pool and arrayed clones: compound effects on levels and localization of tagged proteins
# Type: cell-based, human
# Method: Live cell imaging was performed on a PerkinElmer Opera Phenix microscope with excitation laser 488 nm, and emission filter 500-550 nm, 700 ms.
# Identification of the expressed sgRNAs by in situ sequencing was performed by following and modifying published protocols, see, e.g., Feldman (2019) loc. cit; Ke (2013) Nat Methods 10, 857-60; and Larsson (2010) Nat Methods 7, 395-7.
# Reverse transcription mix (1× RevertAid RT buffer, 250 µM dNTPs, 0.2 mg/mL BSA, 1 µM RT primer, 0.8 U/mL Ribolock RNase inhibitor, and 4.8 U/mL RevertAid H minus reverse transcriptase) was added to the sample and incubated for 16 hours at 37° C. Following reverse transcription, cells were washed 5 times with PBS-T and post-fixed with 3% paraformaldehyde and 0.1% glutaraldehyde for 30 minutes at room temperature and washed 5 times with PBS-T. Cells were incubated in a padlock probe and extension-ligation reaction mix (1× Ampligase buffer, 0.4 U/mL RNase H, 0.2 mg/mL BSA, 100 nM padlock probe, 0.02 U/mL KlenTaq polymerase, 0.5 U/mL Ampligase and […]) for 5 minutes at 37° C. and 90 minutes at 45° C., and then washed 2 times with PBS-T. Circularized padlocks were amplified with rolling circle amplification mix (1× Phi29 buffer, 250 µM dNTPs, 0.2 mg/mL BSA, 5% glycerol, and 1 U/mL Phi29 DNA polymerase) at 30° C. for 4 hours. Rolling circle amplicons were prepared for sequencing by hybridizing a mix containing sequencing primer oSBS_CROP-seq (1 µM primer in 2×SSC+10% formamide) for 30 minutes at room temperature. Barcodes were read out using sequencing-by-synthesis reagents from the Illumina NextSeq 500/550 kit v2 (Illumina 15057934). First, samples were washed with incorporation buffer (NextSeq 500/550 buffer cartridge, position 35) and incubated for 4 minutes in incorporation mix (NextSeq 500/550 reagent cartridge, position 31) at 60° C. Samples were then washed with incorporation buffer (4 washes, 60° C. for 4 minutes at the last wash) and placed in scan mix (NextSeq 500/550 reagent cartridge, position 30) for imaging. Imaging was performed on a PerkinElmer Opera Phenix microscope with excitation laser: 561 nm, emission filter: 570-630, 500 ms; excitation laser: 640 nm, emission filter: 650-760 nm, 500 ms using a 63× water immersion objective, confocal mode. Based were detected as follows: Base T: signal in 561 channel; Base C: signal in 640 channel, Base A: (weaker) signal in both channels, Base G: no signal. Following each imaging cycle, samples were washed with the cleavage mix (NextSeq 500/550 reagent cartridge, position 29) once followed by incubation with cleavage mix for 4 minutes at 60° C. to remove dye terminators. Samples were washed 5 times with incorporation buffer before starting the next cycle.
# It was reasoned that the highly diverse pool of cells expressing GFP-tagged proteins can be used to identify compounds that change protein levels or localization of any of the tagged proteins. […] The application of the CROP-seq vector16 that expresses the sgRNA sequence in a polyadenylated mRNA transcript enables the cell-specific identification of the targeted intron by situ sequencing (see also Feldman, D. et al. Cell 179, 787-799 e17 (2019), Ke, R. et al. Nat Methods 10, 857-60 (2013), Larsson, C. et al. Nat Methods 7, 395-7 (2010). 17-19). To map targeted introns, the cell pool was fixed and a modified in situ sequencing protocol was developed to identify the sgRNA sequence integrated into individual cells in the pool. Based on the library diversity, eight cycles of nucleotide incorporation and imaging are sufficient to unambiguously assign sgRNA sequences (FIG. 6c). Application of this protocol to the cell pool confirmed that in clones with drastic loss of signal GFP was indeed targeted to BRD4 (FIG. 6d).
# Therefore, the cell pool was treated with methotrexate (MTX), an antimetabolite impairing DNA and RNA synthesis and causing DNA damage by inhibiting tetrahydrofolate metabolism. […]
# [1] = dBET6-treated cell pool, FIG. 6e
SMILES,DR1 nuclear signal (1 µM methotrexate (FIG. 10)),GFP-tagged RPA1 localization (1 µM methotrexate (FIG. 10)),GFP-tagged RPA2 localization (1 µM methotrexate (FIG. 10)),NUDT21 nuclear signal (1 µM methotrexate (FIG. 10)),PADI1 protein (1 µM methotrexate (FIG. 10)),RUVBL1 protein (1 µM methotrexate (FIG. 10)),TPI1 nuclear signal (1 µM methotrexate (FIG. 10)),nuclear DNMT1 foci (1 µM methotrexate (FIG. 10)),"GFP-tagged ACLY localization (24 h MTX treatment, 1 µM methotrexate (FIG. 10))",AKAP8 localization [1],FUBP3 localization [1],MEAF1 localization [1],SFPQ localization [1],UNG nuclear intensity [1]
CN(Cc1cnc2nc(N)nc(N)c2n1)c1ccc(C(=O)N[C@@H](CCC(=O)O)C(=O)O)cc1 [methotrexate],gain of nuclear signal,formation of nuclear foci,formation of nuclear foci,gain of nuclear signal,decreases,decreases,gain of nuclear signal,disappearance of nuclear DNMT1 foci,increased nuclear localization,,,,,
Cc1sc2c(c1C)C(c1ccc(Cl)cc1)=N[C@@H](CC(=O)NCCCCCCCCNC(=O)COc1cccc3c1C(=O)N(C1CCC(=O)NC1=O)C3=O)c1nnc(C)n1-2 (some centres unmarked) [dBET6],,,,,,,,,,gain of nuclear foci,loss of subnuclear localization patterns,loss of subnuclear localization patterns,gain of nuclear foci,loss of nuclear intensity
